Source: ChEMBL document CHEMBL3046301, “A study on the genotoxic activities of some new benzoxazoles” (Med Chem Res, 2007)
Values after ≈ are worked out from the molar mass of the structure shown.

Assays:
Bacillus subtilis [1] = assay: Genotoxicity in recombination-deficient Bacillus subtilis M45 assessed as growth inhibition; format: toxicity, organism-based; conditions: in vivo
Bacillus subtilis [2] = assay: Genotoxicity in wild type Bacillus subtilis H17 assessed as growth inhibition; format: toxicity, organism-based; conditions: in vivo
[3] = Ratio of CR50 for wild type Bacillus subtilis H17 to CR50 for recombination-deficient Bacillus subtilis M45; format: ADME, organism-based

Row | SMILES | MIC (Bacillus subtilis [1]) [µg/mL] | MIC (Bacillus subtilis [2]) [µg/mL] | selectivity ratio [3]
1 | Nc1ccc2oc(Cc3ccc(F)cc3)nc2c1 | 500 | 500 (≈ 2060 µM) | 1.25
2 | Clc1ccc2[nH]c(CC3CCCCC3)nc2c1 | 500 | 1000 (≈ 4020 µM) | 0.93
3 | Nc1ccc(-c2nc3cc(Cl)ccc3o2)cc1 | 2000 | 2000 (≈ 8170 µM) | 1
4 | O=[N+]([O-])c1cc[n+]([O-])c2ccccc12 [4-NITROQUINOLINE-1-OXIDE] | 60 | 1000 (≈ 5260 µM) | 0.69
5 | O=[N+]([O-])c1ccc2oc(-c3ccccc3)nc2c1 | 500 | 500 (≈ 2080 µM) | 1.07
6 | Nc1ccc2oc(-c3ccc(Br)cc3)nc2c1 | 1000 | 1000 (≈ 3460 µM) | 1.05
7 | Cc1ccc2[nH]c(Cc3ccc(Br)cc3)nc2c1 | 125 | 30 (≈ 99.6 µM) | 0.49
8 | Clc1ccc(OCc2nc3cc(Cl)ccc3o2)cc1 | 500 | 500 (≈ 1700 µM) | 1
9 | O=C(Nc1ccc2oc(-c3ccccc3)nc2c1)c1ccc(F)cc1 | 500 | 1000 (≈ 3010 µM) | 1.6
10 | Cc1ccc(Cc2nc3cc(N)ccc3o2)cc1 | 500 | 500 (≈ 2100 µM) | 1.74
11 | CNc1ccc(-c2nc3ccccc3o2)cc1 | 500 | 1000 (≈ 4460 µM) | 1.5
12 | O=[N+]([O-])c1cc2oc(C3CCCCC3)nc2cc1Cl | 500 | 500 (≈ 1780 µM) | 1.25
13 | CCOc1ccc(Cc2nc3cc([N+](=O)[O-])ccc3o2)cc1 | 500 | 500 (≈ 1680 µM) | 1.27
14 | CCc1ccc(-c2nc3cc(NC(=O)Cc4ccc(Br)cc4)ccc3o2)cc1 | 500 | 500 (≈ 1150 µM) | 0.95
15 | Cc1ccc2nc(COc3ccccc3)oc2c1 | 1000 | 1000 (≈ 4180 µM) | 0.93
16 | Clc1ccc2oc(Cc3ccc(Br)cc3)nc2c1 | 1000 | 1000 (≈ 3100 µM) | 1.05
17 | Cc1ccc2oc(-c3ccccc3[N+](=O)[O-])nc2c1 | 500 | 500 (≈ 1970 µM) | 0.96
18 | Cc1ccc2nc(-c3ccccc3Cl)oc2c1 | 60 | 125 (≈ 513 µM) | 1.85
19 | O=C(Cc1ccc(F)cc1)Nc1ccc2oc(Cc3ccccc3)nc2c1 | 500 | 500 (≈ 1390 µM) | 0.58
